Experimental data as given in patent US20050130252A1, “Stabilized susceptibility tests of aerobic pathogens” (Wyeth Holdings Corporation, priority 2003, published 2005).
In brackets after ≈: the same amount, converted by molar mass. Where two headings read alike, the source gives them in different places.

Assays:
Assay in all cases: Broth microdilution MIC
Assay type in all cases: cell-based
[1] = test system: Candida albicans GC3066 ATCC Control; settings: for In Vitro Activity of Tigecycline: Broth, C. albicans GC3066 ATCC Control; for MIC: Candida albicans, C. albicans GC3066 ATCC (Control), read-out: Minimal Inhibitory Concentration
Experimental: (§1) The process for preparing susceptibility test medium are the following steps: • a. Preparing Mueller Hinton Broth II medium by adding 22 grams powdered media to 1.0 liter distilled water; • b. Autoclaving (121° C., 15 psi, 15 minutes) and cooling the medium; • c. Adding Oxyrase® up to about 10% final volume and keeping at 35-37° C. in an incubator for 30 minutes; • d. Adding about 50 μL to each well of a 96 well microtiter plate; • e. Weighing drug and adding broth to drug to bring up to about (standard 128 μg/ml); • f. Adding 50 μL of the drug to the first column of the titer plate; • g. Diluting by two-fold serial diluting across or down the plate. • h. Preparing a Prompt™ inoculum at 10^8 CFU/ml; • i. Diluting inoculum 1:100 in the broth at […] in 9.9 ml (1:100) is 10^6 colony forming units (CFU) forming the adjusted inoculum; • j. Adding 50 μL of the adjusted inoculum to the wells of the microtiter plate; • k. Incubating the plates at 35-37° C. for 18-22 hours; and • l. Reading, with the unaided eye, the MIC.
(§2) The in vitro activities of tigecycline and control antibiotics were determined by the broth microdilution method as recommended by the NCCLS. (National Committee for Clinical Laboratory Standards, 2003. Methods for Dilution Antimicrobial Susceptibility Tests for Bacteria That Grow Aerobically; Approved Standards: M7-A6, Sixth ed, vol. 23., National Committee for Clinical Laboratory Standards Wayne, Pa.) was used for the standard procedures. MBH with 5% lysed horse blood was used for testing S. pneumoniae and Haemophilus Test Medium was used for testing H. influenzae. Oxyrase® (Oxyrase Inc, Mansfield, Ohio) was used according to the manufacturer's instructions by adding 1 ml of Oxyrase® to 50 ml of media. Media age studies were performed by preparing MHB in multiple flasks, then storing the media under various conditions. MICs were usually performed in duplicate on each day of testing. Storage under anaerobic conditions was conducted in an anaerobic chamber (MACS MG 1000, Don Whitley Scientific LTD). The pH of the media was determined by pH meter (Corning 430). A comparison of the in vitro activity of tigecycline by agar and broth dilution methodolgies with and without Oxyrase® against clinical isolates is shown in Table 1.

[2] = test system: Enterococcus faecalis GC2267 tet(L) + (M) + (S); settings: for In Vitro Activity of Tigecycline: Broth, E. faecalis GC2267 tet(L) + (M) + (S); for MIC: Enterococcus faecalis, read-out: Minimal Inhibitory Concentration
Experimental: as §1, §2

[3] = test system: Enterococcus faecalis GC4555 ATCC Control; settings: for In Vitro Activity of Tigecycline: Broth, E. faecalis GC4555 ATCC Control; for MIC: Enterococcus faecalis, E. faecalis GC4555 (ATCC Control), read-out: Minimal Inhibitory Concentration
Experimental: as §1, §2

[4] = test system: Escherichia coli GC4559 parent GC4560; settings: E. coli GC4559; for In Vitro Activity of Tigecycline: Broth; for MIC: Escherichia coli, read-out: Minimal Inhibitory Concentration
Experimental: as §1, §2

[5] = test system: H. influenzae GC6896 (ATCC Control); settings: Haemophilus influenzae, read-out: Minimal Inhibitory Concentration
Experimental: as §1, §2

[6] = test system: M. catarrhalis GC6907 (Clinical); settings: Moraxella catarrhalis, read-out: Minimal Inhibitory Concentration
Experimental: as §1, §2

[7] = test system: S. pneumoniae GC1894 (Clinical); settings: Streptococcus pneumoniae, read-out: Minimal Inhibitory Concentration
Experimental: as §1, §2

[8] = test system: S. pneumoniae GC4465 (Clinical); settings: Streptococcus pneumoniae, read-out: Minimal Inhibitory Concentration
Experimental: as §1, §2

[9] = test system: S. pyogenes GC4563 (Clinical); settings: Streptococcus pyogenes, read-out: Minimal Inhibitory Concentration
Experimental: as §1, §2

[10] = test system: Staphylococcus aureus GC1079 tet(K)
Experimental: as §1, §2

[11] = test system: Staphylococcus aureus GC1131 Clinical isolate; settings: for In Vitro Activity of Tigecycline: Broth, S. aureus GC1131; for MIC: Staphylococcus aureus, S. aureus GC1131 (Clinical), read-out: Minimal Inhibitory Concentration
Experimental: as §1, §2

[12] = test system: Staphylococcus aureus GC2216 ATCC Control; settings: for In Vitro Activity of Tigecycline: Broth, S. aureus GC2216 ATCC Control; for MIC: Staphylococcus aureus, S. aureus GC2216 (ATCC Control), read-out: Minimal Inhibitory Concentration
Experimental: as §1, §2

[13] = test system: Staphylococcus aureus GC4536 Smith MP -In Vivo; settings: for In Vitro Activity of Tigecycline: Broth, S. aureus GC4536 Smith; for MIC: Staphylococcus aureus, S. aureus GC4536 (Smith MP - In Vivo), read-out: Minimal Inhibitory Concentration
Experimental: as §1, §2

[14] = test system: Staphylococcus aureus GC6466 Clinical - tet(M); settings: for In Vitro Activity of Tigecycline: Broth, S. aureus GC6466 tet(M); for MIC: Staphylococcus aureus, read-out: Minimal Inhibitory Concentration
Experimental: as §1, §2

[15] = test system: Staphylococcus aureus GC6467 Clinical - tet(M) + (K); settings: S. aureus GC6467 tet(M) + (K)
Experimental: as §1, §2

[16] = 336 h, Aged Media (two weeks at RT)

CN(C)c1cc(NC(=O)CNC(C)(C)C)c(O)c2c1C[C@H]1C[C@H]3[C@H](N(C)C)C(O)=C(C(N)=O)C(=O)[C@@]3(O)C(O)=C1C2=O [Tigecycline, tigecycline]
In Vitro Activity of Tigecycline ([1]; Oxyrase (2%)): >16 | In Vitro Activity of Tigecycline ([1]; no Oxyrase): >16 | MIC [1, 16]: > 8 µg/mL | MIC ([1]; Fresh Media): > 8 µg/mL | In Vitro Activity of Tigecycline ([2]; Oxyrase (2%)): 0.12 | In Vitro Activity of Tigecycline ([2]; no Oxyrase): 0.50 | MIC ([2]; 336 h): 0.25 µg/mL (≈ 0.427 µM) | MIC [2]: 0.12 µg/mL (≈ 0.205 µM) | In Vitro Activity of Tigecycline ([3]; Oxyrase (2%)): 0.06 | In Vitro Activity of Tigecycline ([3]; no Oxyrase): 0.50 | MIC [3, 16]: 0.25 µg/mL (≈ 0.427 µM) | MIC ([3]; Fresh Media): 0.03 µg/mL (≈ 0.0512 µM) | In Vitro Activity of Tigecycline ([4]; Oxyrase (2%)): 0.12 | In Vitro Activity of Tigecycline ([4]; no Oxyrase): 0.50 | MIC [4, 16]: 0.12 µg/mL (≈ 0.205 µM) | MIC ([4]; Fresh Media): 0.06 µg/mL (≈ 0.102 µM) | MIC [5, 16]: 0.5 µg/mL (≈ 0.854 µM) | MIC ([5]; Fresh Media): 0.25 µg/mL (≈ 0.427 µM) | MIC [6, 16]: 0.03 µg/mL (≈ 0.0512 µM) | MIC ([6]; Fresh Media): 0.015 µg/mL (≈ 0.0256 µM) | MIC [7, 16]: 0.03 µg/mL (≈ 0.0512 µM) | MIC ([7]; Fresh Media): < 0.008 µg/mL | MIC [8, 16]: 0.03 µg/mL (≈ 0.0512 µM) | MIC ([8]; Fresh Media): < 0.008 µg/mL | MIC [9, 16]: 0.03 µg/mL (≈ 0.0512 µM) | MIC ([9]; Fresh Media): < 0.008 µg/mL | In Vitro Activity of Tigecycline ([10]; Broth, no Oxyrase, S. aureus GC1079 tet(K)): 0.50 | MIC ([10]; Staphylococcus aureus, read-out: Minimal Inhibitory Concentration): 0.25 µg/mL (≈ 0.427 µM) | In Vitro Activity of Tigecycline ([11]; Oxyrase (2%)): 0.25 | In Vitro Activity of Tigecycline ([11]; no Oxyrase): 0.50 | MIC [11, 16]: 0.25 µg/mL (≈ 0.427 µM) | MIC ([11]; Fresh Media): 0.25 µg/mL (≈ 0.427 µM) | In Vitro Activity of Tigecycline ([12]; Oxyrase (2%)): 0.12 | In Vitro Activity of Tigecycline ([12]; no Oxyrase): 0.50 | MIC [12, 16]: 0.25 µg/mL (≈ 0.427 µM) | MIC ([12]; Fresh Media): 0.12 µg/mL (≈ 0.205 µM) | In Vitro Activity of Tigecycline ([13]; Oxyrase (2%)): 0.12 | In Vitro Activity of Tigecycline ([13]; no Oxyrase): 0.50 | MIC [13, 16]: 0.25 µg/mL (≈ 0.427 µM) | MIC ([13]; Fresh Media): 0.12 µg/mL (≈ 0.205 µM) | In Vitro Activity of Tigecycline ([14]; Oxyrase (2%)): 0.12 | In Vitro Activity of Tigecycline ([14]; no Oxyrase): 0.50 | MIC ([14]; 336 h): 0.25 µg/mL (≈ 0.427 µM) | MIC [14]: 0.12 µg/mL (≈ 0.205 µM) | In Vitro Activity of Tigecycline ([15]; Oxyrase (2%)): 0.50 | In Vitro Activity of Tigecycline ([15]; no Oxyrase): 1
